Test [1] deals with T1, BchL (Cereibacter sphaeroides, UniProt Q9RFD6).
T1 construct: full-length with N-terminal 6xHis tag and TEV site; recombinant, plasmid-expressed; anaerobically purified; homodimer bridged by one [4Fe-4S] cluster
Nature of the test: EPR of the [4Fe-4S] cluster. Type of test: binding. As to conditions: 40 µM BchL, 3 mM ADP, 1.7 mM dithionite.

Test [2] addresses T2, BchL (Cereibacter sphaeroides, UniProt Q9RFD6, S17A).
T2 construct: full-length with N-terminal 6xHis tag and TEV site; recombinant, plasmid-expressed; anaerobically purified; homodimer bridged by one [4Fe-4S] cluster
Kind of test: hydrogen-deuterium exchange mass spectrometry. Type of test: binding. Conditions: 2 mM ATP, 10 mM MgCl2, pD 7.5, anaerobic.

Test [3] has as its target T3, BchL (Cereibacter sphaeroides, UniProt Q9RFD6, D180N/D182N).
T3 construct: full-length with N-terminal 6xHis tag and TEV site; recombinant, plasmid-expressed; anaerobically purified; homodimer bridged by one [4Fe-4S] cluster
Kind of test: nitrocellulose filter binding. Conditions: labelled compound (α32P-ATP tracer); 4 µM BchL, 1 mM ATP, 10 mM MgCl2, pH 7.5, 25 °C; stoichiometry, no affinity constant.

In test [4] the target is T4, linked-BchL (L1-L2) (Cereibacter sphaeroides, UniProt Q9RFD6).
T4 construct: N-terminal 6xHis tag and TEV site
Kind of test: nitrocellulose filter binding. Conditions: labelled compound (α32P-ATP tracer); 4 µM BchL, 1 mM ATP, 10 mM MgCl2, pH 7.5, 25 °C; stoichiometry, no affinity constant. An excerpt:
nitrocellulose filter binding on linked-BchL (L1-L2) | linked-BchL with unaltered ATP-binding sites ([…]) bind ATP to similar extents

Test [5] has as its target T5, linked-BchL (L1-L2) (Cereibacter sphaeroides, UniProt Q9RFD6, K44A).
T5 construct: N-terminal 6xHis tag and TEV site
Kind of test: nitrocellulose filter binding. As to conditions: labelled compound (32P-ATP tracer); 1 mM ATP, 10 mM MgCl2, pH 7.5, 25 °C; one of two sites mutated.

Test [6] addresses T1, BchL. Kind of test: nitrocellulose filter binding. Conditions: labelled compound (α32P-ATP tracer); 4 µM BchL, 1 mM ATP, 10 mM MgCl2, pH 7.5, 25 °C; stoichiometry, no affinity constant.

T1 sequence (Q9RFD6 whole entry): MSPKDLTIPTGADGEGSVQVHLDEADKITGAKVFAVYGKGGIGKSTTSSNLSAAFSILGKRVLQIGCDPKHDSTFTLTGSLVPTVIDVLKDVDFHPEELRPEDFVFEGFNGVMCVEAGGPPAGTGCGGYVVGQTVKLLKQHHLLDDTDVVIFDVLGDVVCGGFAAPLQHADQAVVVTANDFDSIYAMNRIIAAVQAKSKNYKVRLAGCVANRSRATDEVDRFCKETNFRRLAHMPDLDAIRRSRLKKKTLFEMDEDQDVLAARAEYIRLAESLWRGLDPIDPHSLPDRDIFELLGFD
T5 sequence (Q9RFD6 whole entry K44A): as the sequence (Q9RFD6 whole entry) above, with K44A counted along it
T2 sequence (Q9RFD6 whole entry S17A): as the sequence (Q9RFD6 whole entry) above, with S17A counted along it
T3 sequence (Q9RFD6 whole entry D180N/D182N): as the sequence (Q9RFD6 whole entry) above, with D180N, D182N counted along it
T4 sequence (Q9RFD6 whole entry): as the sequence (Q9RFD6 whole entry) above

As to `Nc1ncnc2c1ncn2[C@@H]1O[C@H](COP(=O)(O)OP(=O)(O)O)[C@@H](O)[C@H]1O` [ADP], on BchL [1], the “EPR of the [4Fe-4S] cluster” value was “with ADP, the proportion of the FeS^A species was diminished by a factor of two”.
On to `Nc1ncnc2c1ncn2[C@@H]1O[C@H](COP(=O)(O)OP(=O)(O)OP(=O)(O)O)[C@@H](O)[C@H]1O` [ATP], for which the “hydrogen-deuterium exchange mass spectrometry” value at BchL [2] is “Both BchL and BchL^S17A show similar patterns of reduced deuteration upon binding to ATP”. In addition, the “ATP bound per BchL dimer” value at BchL [3] and on BchL [6] was ~ 2 ATP per dimer in each case. The nitrocellulose filter binding result at linked-BchL (L1-L2) [4] was “linked-BchL with unaltered ATP-binding sites (L1L2) bind ATP to similar extents”; on linked-BchL (L1-L2) [5] it was “When only one of the two ATP binding sites is mutated (L1^KA-L2), partial ATP binding is observed”.
